The values that follow come from ChEMBL document CHEMBL2331503, “Hx-amides: DNA sequence recognition by the fluorescent Hx (p-anisylbenzimidazole)•pyrrole and Hx•imidazole pairings” (Bioorg Med Chem Lett, 2013).

Activity calls are given as the source filed them. The rule behind the calls is not given here.

One may read the ΔTm as the change in melting temperature against a reference sample.

The nature of assay [1]: Binding affinity to 5'-AGCGCT DNA by surface plasmon resonance assay. For orientation: SPR reads the build-up and loss of mass on a sensor chip optically.
The nature of assay [2]: Binding affinity to 5'-ATGCAT DNA by surface plasmon resonance assay.
The nature of assay [3]: Binding affinity to cognate sequence of 5'-ACCGGT DNA by surface plasmon resonance assay.
Assay [4] in a line: Binding affinity to cognate sequence of 5'-ACCGGT DNA at 1 mol equivalent by circular dichroism analysis. (In general: Circular dichroism is widely used to follow secondary structure.)
Assay [5] is described as follows: Binding affinity to 5'-ACGCGT DNA assessed as change in melting temperature at 3 mol equivalent of compound-DNA.
Assay [6] can be described thus: Binding affinity to 5'-ACCGGT DNA assessed as change in melting temperature at 3 mol equivalent of compound-DNA.
A short description of assay [7]: Binding affinity to 5'-AAATTT DNA assessed as change in melting temperature at 3 mol equivalent of compound-DNA.
Assay [8] can be described thus: Inhibition of 5'-ACCGGT cognate sequence containing 5'-32P labeled 131 base pair DNA (unknown origin) cleavage at 10 to 30 uM DNase I footprinting method.

As to `COc1ccc(-c2nc3ccc(C(=O)Nc4cn(C)c(C(=O)Nc5cn(C)c(C(=O)NCCN(C)C)n5)n4)cc3[nH]2)cc1`, the K in assay [1] was 5 ×10⁵ /M; in assay [2] it was 1 ×10⁶ /M; in assay [3] it was 2 ×10⁶ /M. Further, the result in assay [4] was Active. In addition, the ΔTm in assay [5] came to 0 °C; in assay [6], 5 °C; in assay [7], 5 °C. For the same molecule, the inhibition result in assay [8] was “Active”.
